Measurements taken from paper PMC3702004, “Comparison of Intake and Systemic Relative Effect Potencies of Dioxin-like Compounds in Female Mice after a Single Oral Dose” (Environmental Health Perspectives, 2013).

Legend:
[1] = toxic equivalency factor relative to TCDD; ref Van den Berg et al. 2006; cited from earlier work
[2] = Body and organ weight, hepatic lipid content; format: in vivo, female C57BL/6 mice; details: day 3; for % lipid / g liver: pooled liver samples
Procedure: Animals. Eight-week-old female C57BL/6 mice (Harlan laboratories, Venray, the Netherlands) were randomly assigned to treatment groups (six animals per group) and allowed to acclimate for 1.5 weeks. The animals were housed in groups in standard cages and conditions (23 ± 2°C, 50–60% relative humidity, 12-hr dark/light cycle) with free access to food and water. Mice received a single dose of test compound by oral gavage at a dosing volume of 10 mL/kg body weight (BW). Mice treated with corn oil vehicle (10 mL/kg BW) served as controls. For each congener, five different doses were administered, ranging from 0.5–100 μg/kg BW (TCDD) to 5,000–500,000 µg/kg BW (PCB-153). Detailed information on doses is provided in Supplemental Material, Table S1 (http://dx.doi.org/10.1289/ehp.1206336). On day 3 after dosing, animals were euthanized by CO2/O2 asphyxiation, and blood was immediately collected from the abdominal aorta. The liver, thymus, spleen, and adipose tissue were removed, weighed (liver, thymus, and spleen), snap frozen, and stored at –80°C. All animal treatments were performed with permission of the Animal Ethical Committee (DEC Utrecht) and performed according to the [Law on Animal Experiments (1977)]. Animals were treated humanely and with regard for alleviation of suffering.
Compound analysis. Adipose and liver tissues samples were homogenized in Na2SO4, followed by extraction and clean-up in one step, and then eluted with 200 mL 1:1 hexane:dichloromethane on an open column packed with 40% wt/wt H2SO4-impregnated silica and KOH-silica. Blood plasma samples were extracted on an open column using Chem-Elut (Agilent Technologies, Santa Clara, CA, USA) and then NaCl eluted with 75 mL 3:2 hexane:2-propanol. Clean-up was performed using a miniaturized silica column (as described above), and samples were eluted using 30 mL hexane. Because the samples typically contained high levels of the analytes, only a small fraction was evaporated and analyzed. Prior to evaporation, we spiked a fraction of the samples with ^13C-labeled standards. We checked potential loss of analytes during extraction and clean-up by reextracting the samples using the identical protocol used for the samples. […] Tetradecane was added prior to evaporation. Sample analysis followed the U.S. Environmental Protection Agency Method 1613 ([U.S. Environmental Protection Agency 1994]) using single ion monitoring mode on an Agilent 6809N gas chromatograph (Agilent Technologies) coupled with a Micromass Ultima Autospec Ultra high-resolution mass spectrometer (HRMS; Waters Corp., Milford, MA, USA). Compounds were separated on a 60 m × 0.25 mm DB5-MS column ([…]; J&W Scientific, Folsom, CA, USA). The HRMS was operated with electron impact ionization with electron energy of 35 eV and an ion source temperature of 250°C. To reduce the number of analyses, samples were pooled before clean-up. […] This method was used because full congener–specific separation could be achieved on the high-resolution GC–HRMS. For lipid determination, samples were evaporated to dryness after the extraction step, and the amount of lipids was determined gravimetrically. Concentrations were calculated based on lipid weight and wet weight. The analysis of samples for the PCB-118 5,000 μg/kg BW dose failed during the procedure; thus analysis for this group could not be completed.
Statistical analysis. Statistical significant differences of the means and variances were determined using one-way analysis of variance (ANOVA) followed by Tukey-Kramer multiple comparisons. Differences were considered statistically significant at p < 0.05. Statistical calculations were performed using GraphPad 6.01 (GraphPad Software Inc.).

## Clc1ccc(-c2cc(Cl)c(Cl)c(Cl)c2)cc1Cl [PCB-126, 3,3´,4,4´,5-pentachlorobiphenyl]
[1]
  WHO-TEF: 0.1
[2]; oral dose 5 µg/kg bw
  Body weight: 19.3 ± 0.9 gram
  Liver weight: 4.97 ± 0.38 % of bw
  Spleen weight: 0.33 ± 0.04 % of bw
  Thymus weight: 0.27 ± 0.06 % of bw
  % lipid / g liver: 3.4%
[2]; oral dose 25 µg/kg bw
  Body weight: 18.9 ± 1.4 gram
  Liver weight: 4.96 ± 0.35 % of bw
  Spleen weight: 0.33 ± 0.06 % of bw
  Thymus weight: 0.29 ± 0.05 % of bw
  % lipid / g liver: 3.7%
[2]; oral dose 100 µg/kg bw
  Body weight: 19.5 ± 0.7 gram
  Liver weight: 5.07 ± 0.19 % of bw
  Spleen weight: 0.31 ± 0.04 % of bw
  Thymus weight: 0.25 ± 0.06 % of bw
  % lipid / g liver: 4.4%
[2]; oral dose 250 µg/kg bw
  Body weight: 19.3 ± 1.3 gram
  Liver weight: 5.43 ± 0.19 % of bw
  Spleen weight: 0.32 ± 0.02 % of bw
  Thymus weight: 0.26 ± 0.04 % of bw
[2]; oral dose 1000 µg/kg bw
  Body weight: 18.8 ± 0.9 gram
  Liver weight: 5.64 ± 0.20 % of bw
  Spleen weight: 0.39 ± 0.16 % of bw
  Thymus weight: 0.27 ± 0.04 % of bw
[2]; single oral dose
  Dose with significant increase in liver weight vs vehicle controls: ≥ 1,000 µg/kg BW

## Clc1cc(Cl)c(-c2cc(Cl)c(Cl)cc2Cl)cc1Cl [PCB-153, 2,2´,4,4´,5,5´-hexachlorobiphenyl]
[2]; oral dose 5000 µg/kg bw
  Body weight: 18.8 ± 1.1 gram
  Liver weight: 4.71 ± 0.34 % of bw
  Spleen weight: 0.30 ± 0.04 % of bw
  Thymus weight: 0.25 ± 0.05 % of bw
  % lipid / g liver: 3.3%
[2]; oral dose 15000 µg/kg bw
  Body weight: 19.1 ± 0.5 gram
  Liver weight: 4.96 ± 0.10 % of bw
  Spleen weight: 0.36 ± 0.04 % of bw
  Thymus weight: 0.26 ± 0.04 % of bw
  % lipid / g liver: 3.9%
[2]; oral dose 50000 µg/kg bw
  Body weight: 19.6 ± 0.8 gram
  Liver weight: 5.15 ± 0.38 % of bw
  Spleen weight: 0.33 ± 0.04 % of bw
  Thymus weight: 0.29 ± 0.03 % of bw
  % lipid / g liver: 3.4%
[2]; oral dose 150000 µg/kg bw
  Body weight: 19.9 ± 1.1 gram
  Liver weight: 5.47 ± 0.37 % of bw
  Spleen weight: 0.34 ± 0.05 % of bw
  Thymus weight: 0.25 ± 0.04 % of bw
[2]; oral dose 500000 µg/kg bw
  Body weight: 18.8 ± 0.7 gram
  Liver weight: 5.80 ± 0.30 % of bw
  Spleen weight: 0.33 ± 0.05 % of bw
  Thymus weight: 0.24 ± 0.04 % of bw
[2]; single oral dose
  Dose with significant increase in liver weight vs vehicle controls: ≥ 500,000 µg/kg BW
  Dose with statistically significant decrease in relative thymus weight vs vehicle controls: 500,000 μg/kg BW

## Clc1ccc(-c2cc(Cl)c(Cl)c(Cl)c2Cl)cc1Cl [PCB-156, 2,3,3´,4,4´,5-hexachlorobiphenyl]
[1]
  WHO-TEF: 0.00003
[2]; oral dose 5000 µg/kg bw
  Body weight: 17.7 ± 0.7 gram
  Liver weight: 4.71 ± 0.43 % of bw
  Spleen weight: 0.27 ± 0.03 % of bw
  Thymus weight: 0.21 ± 0.05 % of bw
  % lipid / g liver: 3.0%
[2]; oral dose 15000 µg/kg bw
  Body weight: 18.7 ± 1.3 gram
  Liver weight: 5.14 ± 0.41 % of bw
  Spleen weight: 0.30 ± 0.03 % of bw
  Thymus weight: 0.23 ± 0.04 % of bw
  % lipid / g liver: 3.3%
[2]; oral dose 50000 µg/kg bw
  Body weight: 18.0 ± 0.9 gram
  Liver weight: 5.96 ± 0.62 % of bw
  Spleen weight: 0.31 ± 0.04 % of bw
  Thymus weight: 0.25 ± 0.02 % of bw
  % lipid / g liver: 5.7%
[2]; oral dose 150000 µg/kg bw
  Body weight: 19.2 ± 1.1 gram
  Liver weight: 6.79 ± 0.51 % of bw
  Spleen weight: 0.29 ± 0.02 % of bw
  Thymus weight: 0.21 ± 0.04 % of bw
  % lipid / g liver: 6.8%
[2]; oral dose 500000 µg/kg bw
  Body weight: 18.7 ± 0.6 gram
  Liver weight: 8.10 ± 0.17 % of bw
  Spleen weight: 0.33 ± 0.03 % of bw
  Thymus weight: 0.18 ± 0.05 % of bw
[2]; single oral dose
  Dose with significant increase in liver weight vs vehicle controls: ≥ 50,000 µg/kg BW
